Positions of bridges follow the written chain, without caps; N, C: chain ends. Chains are numbered I, II in the order given.
How the values were obtained:
[1] = target: T1, human ASGPR-1 (Homo sapiens, UniProt P07306); assay: Solid-phase binding assay with recombinant receptors; conditions: biotinylated tetravalent peptide
T1 construct: The extracellular domains of receptors, which were fused with the Fc domain of immunoglobulin IgG; purchased R&D Systems
T1 sequence (P07306 62-291 limits assumed): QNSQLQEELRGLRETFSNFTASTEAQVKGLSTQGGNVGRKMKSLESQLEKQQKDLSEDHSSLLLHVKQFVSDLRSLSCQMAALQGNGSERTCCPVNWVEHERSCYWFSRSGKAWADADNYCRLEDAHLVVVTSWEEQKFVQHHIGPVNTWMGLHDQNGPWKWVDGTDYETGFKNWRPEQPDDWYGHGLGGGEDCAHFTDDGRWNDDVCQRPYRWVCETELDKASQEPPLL
Description: (§1) Binding Assays Solid-phase binding assays were performed with streptavidin-, protein A/G-, or Nickel-coated microtiter plates (Pierce). His-tagged or Fc-fusion recombinant receptors (R&D Systems, Minneapolis, Minn.) were reconstituted in PBS. Sufficient receptors were added to wells to saturate the coating. His-tagged receptors were added to each well at a 5-fold excess over the stated capacity of the Ni coating to minimize non-specific binding of the peptide. Wells were washed three times with binding buffer (25 mM Tris HCl, pH 7.4, 150 mM NaCl, 0.05% Tween-20) to remove unbound receptor and 50 μL of 2 μM biotinylated peptide in binding buffer were added and allowed to incubate for 1 h. The wells were washed four times with binding buffer and then incubated with 50 μL of 1 μg/mL streptavidin conjugated with peroxidase (Sigma-Aldrich) for 1 h. The wells were washed five times with binding buffer and 50 μL of peroxidase substrate (1-Step™ Ultra TMB, Pierce) were added. After several minutes to allow color development, the reaction was stopped with 50 μL 1 M H3PO4 and absorbance was measured at 450 nm. Bound streptavidin was quantitated by the specific activity of peroxidase (absorbance/ng protein conjugate/min) under the conditions of the assay.
(§2) Solid-phase binding assays were performed with recombinant human receptors. Three variations of the binding assay were used in this study, all of which allowed the arms of the tetravalent peptide to have full flexibility. (i) Biotinylated peptide was bound in microtiter wells coated with streptavidin and incubated with recombinant human receptors. After extensive washing, the bound receptor was measured by peroxidase conjugated to a receptor-specific antibody. (ii) The extracellular domains of receptors, which were fused with the Fc domain of immunoglobulin IgG, were bound in wells coated with protein A/G. Biotinylated peptide was incubated with the receptors and, after extensive washing, bound peptide was measured with streptavidin conjugated with peroxidase. Or (iii), recombinant receptors with a poly-His tag were bound to Nickel-coated wells and incubated with biotinylated peptide. svL4 and sv6D contain His residues (FIGS. 1A, 1C) and can bind to the Ni coating, which was minimized by adding sufficient poly-His-tagged receptor to saturate the Ni coating.

[2] = target: T2, recombinant human CLEC10A (Homo sapiens, UniProt Q8IUN9); assay: as above; conditions: for Binding to CLEC10A: biotinylated tetravalent peptide
T2 construct: The extracellular domains of receptors, which were fused with the Fc domain of immunoglobulin IgG; purchased R&D Systems
T2 sequence (Q8IUN9 61-316 limits assumed): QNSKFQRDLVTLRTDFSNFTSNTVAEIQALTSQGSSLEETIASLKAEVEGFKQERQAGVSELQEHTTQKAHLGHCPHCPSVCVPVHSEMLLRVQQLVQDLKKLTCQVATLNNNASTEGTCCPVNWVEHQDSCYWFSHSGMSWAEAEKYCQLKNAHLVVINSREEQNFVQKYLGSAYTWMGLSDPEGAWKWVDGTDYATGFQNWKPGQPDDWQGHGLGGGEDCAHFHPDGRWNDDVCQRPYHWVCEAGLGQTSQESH
Description: as §1, §2

[3] = target: T3, CD44 (Homo sapiens, UniProt P16070); assay: Solid-phase binding assay, survey of other receptors
T3 construct: The extracellular domains of receptors, which were fused with the Fc domain of immunoglobulin IgG; purchased R&D Systems
T3 sequence (P16070 21-220 limits assumed): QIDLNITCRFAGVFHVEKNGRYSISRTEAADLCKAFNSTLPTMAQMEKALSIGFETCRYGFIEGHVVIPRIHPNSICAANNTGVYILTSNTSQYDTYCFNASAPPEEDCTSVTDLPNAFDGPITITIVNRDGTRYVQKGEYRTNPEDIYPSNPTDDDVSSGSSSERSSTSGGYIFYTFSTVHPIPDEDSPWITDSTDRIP
Description: as §1, §2
(§3) Of the receptors we have assayed thus far, the peptides bound to those specific for GalNAc, which included CLEC4F, a GalNAc-binding receptor expressed by Kupffer cells that is also homologous to ASGPR-1 [50].

[4] = target: T4, IL-4R (Homo sapiens, UniProt P24394); assay: as above
T4 construct: The extracellular domains of receptors, which were fused with the Fc domain of immunoglobulin IgG; purchased R&D Systems
T4 sequence (P24394 26-232 limits assumed): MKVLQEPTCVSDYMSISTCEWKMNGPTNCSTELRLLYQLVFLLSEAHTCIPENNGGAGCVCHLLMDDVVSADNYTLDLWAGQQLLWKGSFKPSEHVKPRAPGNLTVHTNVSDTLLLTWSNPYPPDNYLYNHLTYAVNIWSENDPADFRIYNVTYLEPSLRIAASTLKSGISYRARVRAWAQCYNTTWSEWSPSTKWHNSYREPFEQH
Description: as §1, §2, §3

[5] = target: T5, DC-SIGN (Homo sapiens, UniProt Q9NNX6); assay: as above
T5 construct: The extracellular domains of receptors, which were fused with the Fc domain of immunoglobulin IgG; purchased R&D Systems
T5 sequence (Q9NNX6 59-404 limits assumed): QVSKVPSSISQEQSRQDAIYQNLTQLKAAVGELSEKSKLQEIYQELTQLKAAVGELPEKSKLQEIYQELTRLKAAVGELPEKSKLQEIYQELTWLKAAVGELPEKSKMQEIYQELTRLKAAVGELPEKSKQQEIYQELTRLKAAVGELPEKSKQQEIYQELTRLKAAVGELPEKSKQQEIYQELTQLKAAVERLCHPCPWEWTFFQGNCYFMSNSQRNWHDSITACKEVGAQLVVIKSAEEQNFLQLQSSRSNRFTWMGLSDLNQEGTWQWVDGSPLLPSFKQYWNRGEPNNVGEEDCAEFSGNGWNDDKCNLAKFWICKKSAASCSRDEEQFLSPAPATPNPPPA
Description: as §1, §2, §3

[6] = target: T6, CLEC9A (Homo sapiens, UniProt Q6UXN8); assay: as above
T6 construct: The extracellular domains of receptors, which were fused with the Fc domain of immunoglobulin IgG; purchased R&D Systems
T6 sequence (Q6UXN8 57-241 limits assumed): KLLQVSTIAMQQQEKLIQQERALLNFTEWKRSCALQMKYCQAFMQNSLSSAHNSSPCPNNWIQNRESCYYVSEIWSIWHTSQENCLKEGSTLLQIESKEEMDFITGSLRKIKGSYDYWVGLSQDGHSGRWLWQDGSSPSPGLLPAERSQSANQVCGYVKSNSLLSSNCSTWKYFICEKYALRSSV
Description: as §1, §2, §3

[7] = target: T7, Siglec-1 (Homo sapiens, UniProt Q9BZZ2); assay: as above
T7 construct: The extracellular domains of receptors, which were fused with the Fc domain of immunoglobulin IgG; purchased R&D Systems
T7 sequence (Q9BZZ2 20-1641 limits assumed): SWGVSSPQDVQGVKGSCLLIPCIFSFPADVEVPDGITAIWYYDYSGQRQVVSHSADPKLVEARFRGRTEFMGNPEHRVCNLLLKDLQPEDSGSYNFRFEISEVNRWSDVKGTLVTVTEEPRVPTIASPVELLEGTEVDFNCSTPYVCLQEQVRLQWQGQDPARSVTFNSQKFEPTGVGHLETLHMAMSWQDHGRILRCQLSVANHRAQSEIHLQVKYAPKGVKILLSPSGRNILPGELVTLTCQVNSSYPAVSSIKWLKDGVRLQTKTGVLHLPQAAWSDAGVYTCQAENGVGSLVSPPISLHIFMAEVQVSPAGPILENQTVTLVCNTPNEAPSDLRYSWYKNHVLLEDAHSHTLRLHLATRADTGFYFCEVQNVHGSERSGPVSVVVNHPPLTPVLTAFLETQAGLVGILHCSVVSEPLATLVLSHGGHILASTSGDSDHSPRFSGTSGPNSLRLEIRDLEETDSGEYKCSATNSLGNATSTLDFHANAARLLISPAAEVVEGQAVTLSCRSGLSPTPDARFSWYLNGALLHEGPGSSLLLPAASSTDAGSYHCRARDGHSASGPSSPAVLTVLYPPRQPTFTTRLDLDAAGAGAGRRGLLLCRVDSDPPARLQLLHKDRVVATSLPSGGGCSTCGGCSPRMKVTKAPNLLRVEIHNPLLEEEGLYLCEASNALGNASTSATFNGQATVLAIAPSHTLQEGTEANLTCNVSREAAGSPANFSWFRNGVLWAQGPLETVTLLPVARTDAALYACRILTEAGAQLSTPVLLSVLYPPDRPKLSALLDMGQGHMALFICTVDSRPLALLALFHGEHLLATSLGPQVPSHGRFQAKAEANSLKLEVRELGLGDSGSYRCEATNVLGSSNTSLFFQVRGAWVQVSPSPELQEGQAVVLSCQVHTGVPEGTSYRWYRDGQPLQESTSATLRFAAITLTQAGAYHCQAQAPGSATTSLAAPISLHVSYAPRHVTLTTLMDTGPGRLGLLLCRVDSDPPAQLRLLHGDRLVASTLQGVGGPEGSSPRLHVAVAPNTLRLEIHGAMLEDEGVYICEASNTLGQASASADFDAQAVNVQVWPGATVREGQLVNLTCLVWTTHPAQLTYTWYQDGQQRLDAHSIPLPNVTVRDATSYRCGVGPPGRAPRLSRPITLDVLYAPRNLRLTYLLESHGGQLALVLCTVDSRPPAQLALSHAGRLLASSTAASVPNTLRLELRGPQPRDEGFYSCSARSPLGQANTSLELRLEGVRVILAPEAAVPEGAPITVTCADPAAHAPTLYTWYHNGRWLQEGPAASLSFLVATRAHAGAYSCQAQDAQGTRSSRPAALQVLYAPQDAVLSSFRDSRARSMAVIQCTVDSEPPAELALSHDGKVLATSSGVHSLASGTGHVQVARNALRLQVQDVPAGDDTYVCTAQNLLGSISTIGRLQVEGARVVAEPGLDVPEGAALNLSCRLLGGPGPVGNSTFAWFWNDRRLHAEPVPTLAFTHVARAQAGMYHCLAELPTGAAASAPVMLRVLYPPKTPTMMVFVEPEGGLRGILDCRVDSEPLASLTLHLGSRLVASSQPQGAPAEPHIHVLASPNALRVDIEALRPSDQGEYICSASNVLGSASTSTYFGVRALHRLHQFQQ
Description: as §1, §2, §3

[8] = tested on: CLEC4F; assay: as above; design: species or system human
Description: as §1, with “The wells were washed five times with binding buffer and 50 μL of peroxidase substrate (1-Step™ Ultra TMB, Pierce) were added.” left out
Solid-phase binding assays were performed with recombinant human receptors. […] After extensive washing, the bound receptor was measured by peroxidase conjugated to a receptor-specific antibody. […]

Substance	Binding to ASGPR-1 [1]	Binding to CLEC10A [2]	Ca2+ dependence of binding ([2]; chelation of Ca2+ with low concentrations of EGTA, CLEC10A and ASGPR-1)	Binding to CD44 [3]	Binding to IL-4R [4]	Binding to DC-SIGN [5]	Binding to CLEC9A [6]	Binding to Siglec-1 [7]	Binding to CLEC4F [8]
I: H-NQHTPRGGGSKK-NH2 / II: H-NQHTPRGGGSK / III: H-NQHTPRGGGS / IV: H-NQHTPRGGGS (amide I:11-IV:C, I:12-II:C, II:11-III:C) [sv6D]	bound as strongly as the full-length sequence	bound as strongly as the full-length sequence	requires Ca^2+	not detected	not detected	did not bind significantly	did not bind significantly	did not bind significantly	bound
I: H-VQATQSNQHTPRGGGSKK-NH2 / II: H-VQATQSNQHTPRGGGSK / III: H-VQATQSNQHTPRGGGS / IV: H-VQATQSNQHTPRGGGS (amide I:17-IV:C, I:18-II:C, II:17-III:C) [svL4]	bound	bound		not detected	not detected	did not bind significantly	did not bind significantly	did not bind significantly	bound

From patent US11376307B2, “Compositions and methods of treating cancer with glycomimetic peptides” (SUSAVION BIOSCIENCES, INC., priority 2018, dated 2022)
